Broadly, the inhibition is the change of the read-out against control, counted positive when it falls. The IC50 is the midpoint of a concentration-inhibition curve. As usually defined, the Ki is the equilibrium dissociation constant of an inhibitor or competing ligand from its target.

Active and inactive are the calls of the source. No cut-off for these calls is given here.

For experiment [1], the system named is MDA-MB-231. Description: Antiproliferative activity against human MDA-MB-231 cells assessed as cell viability at IC50 concentration after 48 hrs by 2',7'-dichlorofluorescin diacetate/PI staining based flow cytometry. Format: functional. In general terms: Flow cytometry measures light scatter and fluorescence of single cells or particles in a stream.
For experiment [2], the target named is T1, M-phase inducer phosphatase 2 (Homo sapiens) (UniProt P30305).
T1 sequence (whole entry): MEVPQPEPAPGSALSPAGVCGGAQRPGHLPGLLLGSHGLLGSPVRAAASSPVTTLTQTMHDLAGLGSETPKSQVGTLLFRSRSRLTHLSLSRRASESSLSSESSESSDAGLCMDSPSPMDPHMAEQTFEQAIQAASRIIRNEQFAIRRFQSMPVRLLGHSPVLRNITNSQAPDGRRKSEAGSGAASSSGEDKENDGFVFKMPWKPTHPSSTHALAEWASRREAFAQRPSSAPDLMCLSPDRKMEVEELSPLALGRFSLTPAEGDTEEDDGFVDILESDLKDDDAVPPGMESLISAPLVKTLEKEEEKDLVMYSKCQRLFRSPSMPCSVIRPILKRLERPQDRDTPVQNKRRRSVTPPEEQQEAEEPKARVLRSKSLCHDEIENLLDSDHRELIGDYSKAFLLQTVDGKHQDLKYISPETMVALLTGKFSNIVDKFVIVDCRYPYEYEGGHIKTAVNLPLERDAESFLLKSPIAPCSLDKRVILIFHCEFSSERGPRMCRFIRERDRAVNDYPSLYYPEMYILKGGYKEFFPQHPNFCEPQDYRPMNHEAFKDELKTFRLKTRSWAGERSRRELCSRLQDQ
Description: Inhibition of human recombinant GST-tagged CDC25B catalytic domain transfected in Escherichia coli BL21-DE3 using 3-O-methylfluorescein phosphate as substrate at 10 uM incubated for 20 mins followed by substrate addition measured every 10 mins for 2 hrs by fluorimetric assay.

Experiment [3] addresses T2, M-phase inducer phosphatase 3 (Homo sapiens) (UniProt P30307).
T2 sequence (whole entry): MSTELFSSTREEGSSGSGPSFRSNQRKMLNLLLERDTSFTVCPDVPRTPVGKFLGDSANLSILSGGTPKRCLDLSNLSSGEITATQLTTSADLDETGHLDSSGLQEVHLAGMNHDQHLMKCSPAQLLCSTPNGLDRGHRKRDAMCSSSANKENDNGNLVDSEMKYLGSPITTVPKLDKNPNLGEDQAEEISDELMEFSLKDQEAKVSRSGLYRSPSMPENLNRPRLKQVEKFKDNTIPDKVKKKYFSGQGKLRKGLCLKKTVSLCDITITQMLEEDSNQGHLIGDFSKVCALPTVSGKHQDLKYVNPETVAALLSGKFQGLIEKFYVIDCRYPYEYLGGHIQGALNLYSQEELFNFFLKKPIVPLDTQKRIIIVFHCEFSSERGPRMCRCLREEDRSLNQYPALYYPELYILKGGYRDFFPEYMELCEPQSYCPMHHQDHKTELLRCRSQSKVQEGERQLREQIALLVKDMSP
Description: Inhibition of human recombinant full length GST-tagged CDC25C transfected in Escherichia coli BL21-DE3 using 3-O-methylfluorescein phosphate as substrate at 10 uM incubated for 20 mins followed by substrate addition measured every 10 mins for 2 hrs by fluorimetric assay.

Experiment [4] has as its target T3, M-phase inducer phosphatase 1 (Homo sapiens, UniProt P30304).
T3 sequence (P30304 whole entry): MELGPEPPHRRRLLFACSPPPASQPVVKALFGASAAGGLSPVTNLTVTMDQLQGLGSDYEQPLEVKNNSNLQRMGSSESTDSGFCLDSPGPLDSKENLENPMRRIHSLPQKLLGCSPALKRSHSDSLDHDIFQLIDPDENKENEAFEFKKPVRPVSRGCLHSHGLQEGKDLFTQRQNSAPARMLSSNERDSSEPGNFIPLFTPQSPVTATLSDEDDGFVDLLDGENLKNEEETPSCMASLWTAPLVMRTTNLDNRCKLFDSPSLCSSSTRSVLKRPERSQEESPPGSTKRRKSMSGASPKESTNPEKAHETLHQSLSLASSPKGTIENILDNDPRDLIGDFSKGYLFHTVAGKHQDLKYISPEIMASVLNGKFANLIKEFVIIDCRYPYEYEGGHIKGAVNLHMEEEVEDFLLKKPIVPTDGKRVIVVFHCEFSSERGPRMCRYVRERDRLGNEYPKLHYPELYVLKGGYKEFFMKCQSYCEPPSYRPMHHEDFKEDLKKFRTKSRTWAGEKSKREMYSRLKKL
Description: Inhibition of human recombinant full length GST-tagged CDC25A transfected in Escherichia coli BL21-DE3 using 3-O-methylfluorescein phosphate as substrate incubated for 20 mins followed by substrate addition measured every 10 mins for 2 hrs by fluorimetric assay.

Experiment [5] concerns the target T4, M-phase inducer phosphatase 1 (Homo sapiens) (UniProt P30304).
T4 sequence (whole entry): T3 sequence (P30304 whole entry)
Description: Inhibition of human recombinant full length GST-tagged CDC25A transfected in Escherichia coli BL21-DE3 using 3-O-methylfluorescein phosphate as substrate at 10 uM incubated for 20 mins followed by substrate addition measured every 10 mins for 2 hrs by fluorimetric assay in presence of 0.1% BSA.

For experiment [6], the target named is T3, M-phase inducer phosphatase 1. Put plainly: Mixed type inhibition of human recombinant full length GST-tagged CDC25A transfected in Escherichia coli BL21-DE3 assessed as enzyme/inhibitor complex using 3-O-methylfluorescein phosphate as substrate at 5 uM incubated for 20 mins followed by substrate addition measured every 10 mins for 2 hrs by fluorimetric assay.

Experiment [7] has the same target. Put plainly: Mixed type inhibition of human recombinant full length GST-tagged CDC25A transfected in Escherichia coli BL21-DE3 assessed as enzyme/inhibitor complex using 3-O-methylfluorescein phosphate as substrate at 20 uM incubated for 20 mins followed by substrate addition measured every 10 mins for 2 hrs by fluorimetric assay.
Experiment [8] has the same target. Description: Mixed type inhibition of human recombinant full length GST-tagged CDC25A transfected in Escherichia coli BL21-DE3 assessed as enzyme/substrate/inhibitor complex using 3-O-methylfluorescein phosphate as substrate at 10 uM incubated for 20 mins followed by substrate addition measured every 10 mins for 2 hrs by fluorimetric assay.
Experiment [9] has as its system MDA-MB-231. Description: Cell cycle arrest in human MDA-MB-231 cells assessed as accumulation at G0/G1 phase at IC50 concentration after 48 hrs by propidium iodide staining-based flow cytometry (reference value: 57.3 +/- 0.3%). Format: functional.
For experiment [10], the system named is MDA-MB-231. Description: Cell cycle arrest in human MDA-MB-231 cells assessed as accumulation at S phase at IC50 concentration after 48 hrs by propidium iodide staining-based flow cytometry (reference value: 21.7 +/- 0.3%). Format: functional.
The test system of experiment [11] is MDA-MB-231. Description: Cell cycle arrest in human MDA-MB-231 cells assessed as accumulation at subG1 phase at IC50 concentration after 48 hrs by propidium iodide staining-based flow cytometry. It is filed as functional.
Experiment [12] has as its system MCF7. Description: Induction of apoptosis in human MCF7 cells assessed as nuclear fragmentation after 24 hrs by dihydro-rhodamine 123/hoechst […] staining based UV fluorescent microscopy. It is filed as functional, cell-based.
Experiment [13] concerns MCF7. Put plainly: Increase in RNS levels in human MCF7 cells at IC50 concentration incubated for 24 hrs by DAF-2DA dye based flow cytometry. Format: functional, cell-based.
Experiment [14] has as its system MCF7. Description: Increase in peroxynitryl radical levels in human MCF7 cells at IC50 concentration incubated for 24 hrs by DHR dye based flow cytometry. Format: functional, cell-based.
Experiment [15] concerns HT-29. Description: Cytotoxicity against human HT-29 cells assessed as inhibition of cell growth after 72 hrs by MTT assay. Format: functional, cell-based. Conditions: HT-29, 72 h. In general terms: Formazan colour is commonly taken as a measure of viable cells.

Turning to `COc1ccc(/C=C2/S/C(=N\c3nc4cc(-c5ccc(Cl)cc5)sc4s3)NC2=O)cc1`, the result in experiment [1], in [11] and in experiment [12] was inactive. The inhibition was found to be 36.7% in experiment [2], 24% in [3] and 21.8% in experiment [5]. The half-inhibitory concentration (IC50) in [4] turned out to be 6.2 µM; in [15], 10.3 µM. The values for the inhibition constant Ki in experiment [6], in experiment [7] and in experiment [8] were 37.1 µM, 3.1 µM and 5.1 µM, respectively. The values for the Activity in [9] and in [10] were 58.3% and 25.8%, respectively. Moreover, the outcome in experiment [13] and in experiment [14] was Active.
